Values quoted from earlier work in PMC11289879 (RSC Chemical Biology, 2024).

How the values were obtained:
acute heart failure = details: clinical trial (Novartis; second phase III)

| Substance | solubility in an acidic solvent | effect on the treatment of acute heart failure (acute heart failure) |
| --- | --- | --- |
| DSWMEEVIKLCGRELVRAQIAICGMSTWS [B-chain] | poorly soluble |  |
| Human relaxin-2 [H2 relaxin] |  | no significant effect |
